In patent publication US8242110B2, “Use of antihistamine agents for the preventive or early treatment of inflammatory syndromes, in particular those triggered by togaviruses” (Pierre Fabre Medicament, priority 2006, dated 2012):

Test system: Chikungunya virus
Experiment: Observational study of mequitazine in preventive and early treatment of inflammatory syndromes caused by the Chikungunya virus
Type: in vivo
Conditions: patients
Protocol: Effect of Mequitazine on the Preventive and Early Treatment of Inflammatory Syndromes Caused by the Chikungunya Virus—Results of an Observational Study
104 patients were included in this observational study involving a limited number of doctors held secret: mean age 39.6 years, 61.9% female.
At the time of inclusion at D0, the patients were slightly feverish with a mean temperature of 38.4° C.
The patients consulted after various periods following the onset of hyperthermia, but generally 1.1 days after this onset, the phase preceding the onset of arthralgia.
During this first visit, the most painful joints were the fingers, wrists and ankles.
At this first visit on D0, the doctors gave mequitazine to the patients, possibly in combination with an anti-inflammatory.
A questionnaire was handed to each patient and completed with the patient.
This questionnaire included the content of 2 conventional questionnaires: • HAQ* questionnaire (Health Assessment Questionnaire) to assess the functional capacity of patients (function index) i.e. the handicap generated by the pathology; • A SF12** questionnaire to assess the quality of life of the patient using the SF12 score.
At D7 and D14 the patient again filled in these questionnaires.
At D28, at the time of a further consultation, these questionnaires were again updated. • HAQ: Bruce B and Fries J. The Stanford Health Assessment Questionnaire (HAQ): A review of its history, issues, progress and documentation. J. Rheumatol. 2003; 30(1):167-78. • SF12: Ware J Jr, Kosinski M, Keller S D. A 12-item Short-Form Health Survey: construction of scales and preliminary tests of reliability and validity. Med. Care 1996; 34:220-33.

c1ccc2c(c1)Sc1ccccc1N2CC1CN2CCC1CC2 (centres unmarked) [mequitazine]
handicap generated by the pathology (HAQ function index) (at D14, mequitazine given at D0): statistically significant improvement
handicap generated by the pathology (HAQ function index) (at D28, mequitazine given at D0): statistically significant improvement
number of painful joints (between D0 and D7, decrease continuing in time): significant decrease
influence of combining an anti-inflammatory with mequitazine on the SF12 physical score measuring quality of life (mequitazine combined with an anti-inflammatory): does not have an influence
physical recovery (SF12 scale and HAQ test) in relation to how early mequitazine is prescribed (the earlier a patient consults and mequitazine is prescribed): the more physical recovery is swift and extensive
